Results from article PMC8634879, “Design, Synthesis, and Biological Evaluation of Pyrano[2,3-c]-pyrazole–Based RalA Inhibitors Against Hepatocellular Carcinoma” (Frontiers in Chemistry, 2021).

Experiments:
[1] = biological target: T1, RalB (Homo sapiens, UniProt P11234); assay: GST pulldown of activated RalB; format: cell-based; conditions: 2.0 μM
T1 construct: expressed in transfected cells; host or cells: HepG2 (from b6; the methods paragraph names no cell line)
T1 sequence (P11234 1-203 limits assumed): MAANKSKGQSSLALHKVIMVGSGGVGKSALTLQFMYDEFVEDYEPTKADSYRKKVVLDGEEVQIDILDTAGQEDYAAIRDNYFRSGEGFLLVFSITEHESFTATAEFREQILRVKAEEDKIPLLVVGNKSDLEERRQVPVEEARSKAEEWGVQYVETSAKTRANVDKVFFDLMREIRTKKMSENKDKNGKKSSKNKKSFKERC
Procedure: GST pulldown assays were performed to assess 4p RalA/B inhibitory capacities. […] Only activated RalA was suppressed after incubation with 0.5 μM of compound 4p (Figure 5A).
The in vitro RalA/B bioactivity assays were performed following methods outlined in previous reports. ([Yan et al., 2016]; [Zhang et al., 2018]; [Walsh et al., 2019]; [Bum-Erdene et al., 2020]). In brief, the lysates of the test compound or vehicle-treated cells were cleared using cold centrifugation, and supernatants were collected. An RalBP1 solution was added to 96-well plates and incubated for 1–2 h, and then the plates were washed thrice using ELISA buffer. Next, cellular lysates were added, and samples were incubated overnight at 4°C. Then, ice-cold mouse anti-FLAG antibody was added, and samples were incubated for one more hour. After subsequent washing with ELISA buffer thrice, the HRP-conjugated anti-mouse antibody was added, and samples were incubated for another hour. Then, the HRP substrate was added. Antigen–antibody reactions were quenched by the addition of sulfuric acid (2 mol/L). Remaining RalA/B was detected by the OD450 values which were collected by using a plate reader. Cell proliferation assays, colony formation assays, apoptosis assays, GST pulldown, and Western blotting were used following methods outlined in our previous reports. […]

[2] = tested on: SMMC-7721 cells; assay: Cell proliferation assay (MTT), SMMC-7721; format: cell-based; conditions: Homo sapiens, average of at least three independent replicates ± SD, read-out: Anti-proliferative activities (IC50, μM) SMMC-7721
Procedure: The antibodies recognizing LC3, p62/SQSTM1, RalA, RalB, and GAPDH were purchased from Proteintech (Wuhan, China). HCC cell lines, including HepG2, Hep3B, Huh-7, and SMMC-7721, were obtained from the Chinese Center for Type Culture Collection (Wuhan, China) and cultured in DMEM (Dulbecco’s modified Eagle’s medium) with 10% FBS (fetal bovine serum) and streptomycin. Cytotoxicity assays were performed by using the MTT method as previously described.
The in vitro RalA/B bioactivity assays were performed following methods outlined in previous reports. ([Yan et al., 2016]; [Zhang et al., 2018]; [Walsh et al., 2019]; [Bum-Erdene et al., 2020]). In brief, the lysates of the test compound or vehicle-treated cells were cleared using cold centrifugation, and supernatants were collected. An RalBP1 solution was added to 96-well plates and incubated for 1–2 h, and then the plates were washed thrice using ELISA buffer. Next, cellular lysates were added, and samples were incubated overnight at 4°C. Then, ice-cold mouse anti-FLAG antibody was added, and samples were incubated for one more hour. After subsequent washing with ELISA buffer thrice, the HRP-conjugated anti-mouse antibody was added, and samples were incubated for another hour. Then, the HRP substrate was added. Antigen–antibody reactions were quenched by the addition of sulfuric acid (2 mol/L). Remaining RalA/B was detected by the OD450 values which were collected by using a plate reader. Cell proliferation assays, colony formation assays, apoptosis assays, GST pulldown, and Western blotting were used following methods outlined in our previous reports. ([Zhou et al., 2015]; [Zhang et al., 2016]; [Yang et al., 2017]; [He et al., 2019]). Autophagy levels and protein immunoblotting were used following the methods mentioned in our previous reports ([Pan et al., 2018]; [Wang et al., 2018]; [Hao et al., 2019]; [Wang et al., 2019]; [Peng et al., 2020]). Detailed experimental procedures are described in supporting materials.

COc1ccc(S(=O)(=O)NC2=C(C#N)C(c3ccc(C(F)(F)F)cc3)c3c(C)nn(-c4ccccc4)c3O2)cc1 (centres unmarked) [4p, N-(5-cyano-3-methyl-1-phenyl-4-(4-(trifluoromethyl)phenyl)-1,4-dihydropyrano[2,3-c]-pyrazol-6-yl)-4-methoxybenzenesulfonamide]
activated RalB protein expression level [1]: significantly suppressed
IC50 [2]: 5.38 ± 0.37 µM
